Assay results as given in patent publication EP2653477B1, “SCORPION ACTIVE PEPTIDES AND PREPARATION METHODS AND APPLICATIONS THEREOF” (Wuhan More Biotechnology Co., Ltd., priority 2010, dated 2012).
Bridge positions count the residues as written; N and C are the ends. Peptide text beside a SMILES is read from it.

Experiments:
rheumatoid arthritis = test: pristane-induced rheumatoid arthritis in SD rats, joint score and hind foot plantar swelling; format: in vivo; set-up: key to Score of joint: clinical score 1-4: 1 joint red/swollen=1 ... severe whole-limb arthritis=4; settings: x±s, n=10; for Score of joint: arthritis rats, polypeptides 100 µg·kg^-1 (methotrexate 1.75 µg·kg^-1) subcutaneously once every day, score 1-4; for The swelling degree after the inflammation: volume difference of hind foot before and after the modeling
Procedure: […] Female (♀) specific pathogen free (SPF) inbred line SD rats (Wuhan University Laboratory Animal Center), body weight 150±10 g, were selected, and pristane was injected intradermally at the base of the tail of rats in experimental groups at a dose of 0.2 ml/rat, after they were acclimatized in a clean-grade environment for 1 week. Rheumatoid arthritis appeared after the rats were raised for only 2 weeks.
The rats having arthritis were randomized into: normal control group (negative control group), model negative control group (model rat + normal saline), model positive control group (model rat + methotrexate), administration group A (model rat + ADMR-011 polypeptide), administration group B (model rat + ADMR-016 polypeptide), administration group C (model rat + ADMR-019 polypeptide), administration group D (model rat + ADMR-023 polypeptide), and administration group E (model rat + ADMR-028 polypeptide), 10 rats for each group. The administration groups were injected subcutaneously at a dose of 100 µg·kg^-1, once every day in the morning, and administered continuously; the normal control group and the model negative control group were injected subcutaneously with equivalent amount of normal saline; and the model positive control group were injected subcutaneously with methotrexate (MTX) at a dose of 1.75 µg·kg^-1, once every day, and administered continuously.
The highest clinical score for each animal was recorded, and the average value of them was taken to be the average clinical score. The scoring criteria were: one joint of a rat was red and swollen, 1 point; two joints of a rat were red and swollen, 2 points; all the joints of a rat were red and swollen, 3 points; severe arthritis in the entire limb of a rat, 4 points. Table 2. Arthritis scores for rats of various experimental groups (-x±s)
From day 8 of the experiment, the hind foot plantar volume of the rat was measured and recorded every other day for 21 consecutive days, and the swelling degree (mL) was calculated according to the volume difference before and after the modeling. Table 3. The swelling degree of rats in various experimental groups (-x±s)

Wistar rat EAE model = test: EAE (multiple sclerosis) model in Wistar rats induced by GPSCH-CFA, clinical scoring; format: in vivo; settings: 100 µg·kg^-1 subcutaneously once every day, x±s, n=10, score 0-5
Description: Experimental animals: female inbred line Wistar rats (6∼8 week old, body weigh 150±10 g) and guinea pigs (300∼400 g, purchased from Wuhan University Laboratory Animal Center) were selected.
Formulating a mixed emulsion of whole spinal cord homogenate - Freund's complete adjuvant (GPSCH-CFA): a guinea pig was executed, and the spinal cord was rapidly removed, and prepared into 50% PBS homogenate by a ultrasonic disruptor (Sonics & Materials Inc, America), which was mixed with equal amount of Freund's complete adjuvant (BCG vaccine 10 mg/ml), and was pushed back and forth with syringes until forming a water-in-oil emulsion.
Wistar rat EAE model induced by EAE: GPSCH-CFA emulsion was injected intradermally into the foot pads of both the hind legs of Wistar rats, or simultaneously injected intradermally about 1×10^10 pertussis vaccine. The rats were weighed every day, and observed for their neurological symptoms. Experimental autoimmune encephalomyelitis appeared after the rats had been raised for 2 weeks.
The rats with experimental autoimmune encephalomyelitis (EAE) were divided into […] groups randomly: normal control group (negative control group), model control group (model rats + normal saline), administration group A (model rats + ADMR-011 polypeptide), administration group B (model rats + ADMR-016 polypeptide), administration group C (model rats + ADMR-019 polypeptide), administration group D (model rats + ADMR-023 polypeptide), and administration group E (model rats + ADMR-028 polypeptide), 10 rats for each group. For the administration groups, polypeptides ADMR-011, ADMR-016, ADMR-019, ADMR-023 and ADMR-028 were injected subcutaneously respectively at a dose of 100 µg·kg^-1, once every day in the morning. For the normal control group and the model control group, equivalent amount of normal saline was injected subcutaneously, and administered continuously. […] The highest clinical score for each animal was recorded, and the average value of them was taken to be the average clinical score.
The scoring criteria were: without any clinical symptom, 0 point; disappearance of tension in the tail, and observable mild awkward gait, 1 point; weakness in both the hind limbs, which can recover after passive body flipping, 2 points; paralysis in both the hind limbs, which can not recover after passive body flipping, 3 points; tetraplegia accompanied by incontinence of urine and feces, 4 points; moribund state or death, 5 points. Table 1. Scores for rats of various experimental groups in the EAE model (-x±s)

Kunming mice = test: toxicity study in mice, single intraperitoneal injection, 7 days observation; format: in vivo; settings: 10 mg/kg intraperitoneally once (100 times the dose for animal model), observed 7 days
Procedure: 18∼20 g Kunming mice were selected, and divided into 4 groups, 8 male mice and 8 female mice for each group. The lyophilized powders of scorpion active polypeptides ADMR-011, ADMR-016, ADMR-019, ADMR-023 and ADMR-028 were dissolved with normal saline respectively, and the 3 groups of mice were injected intraperitoneally once respectively with polypeptide solution at a dose of 10 mg/kg (100 times of the dose for animal model), and the fourth group were injected with equivalent amount of normal saline as control.
After the administration, the respiration, motor and heartbeat in animals of all the groups were all normal, without significant abnormal reaction. 7 days after the administration, all the animals were conducted gross anatomy to observe the volume, color and texture of the main organs (heart, liver, spleen, lung, and kidney), and there was no macroscopic lesion. There were no significant difference between the 3 administration groups and the normal saline group.

potassium channel Kv1.3 = target: T1, potassium channel Kv1.3 (Homo sapiens, UniProt P22001); test: whole-cell patch clamp, inhibition of Kv1.3 current in transfected COS-7 cells; format: cell-based; settings: potassium channel Kv1.3 in COS-7 cells, read-out: polypeptide concentrations that inhibit the current by half (IC50 value)
T1 construct: expressed in transfected cells; host or cells: COS-7 cells, selected with 0.8 mg/mL geneticin
Procedure: COS-7 cells were cultured in a DMEM medium containing 10% fetal calf serum, at 37° C, 5% CO2. The recombinant plasmids of potassium channel Kv1.3 were transfected by using a Sofast™ transfection kit, and the transfected cells were selectively cultured in a medium containing 0.8 mg/mL geneticin. The pharmacological activities of scorpion active polypeptides ADMR-011, ADMR-016, ADMR-019, ADMR-023 and ADMR-028 were tested and analyzed by using an instrument of whole-cell patch clamp (EPC-10 dual-channel patch clamp amplifier HEKA, Elektronik, Lambrecht, Germany). The setting of the experimental parameters, the collecting of data, and the applying of stimulus were all controlled by Pulse software (Elektronik, Lambrecht, Germany). The filter of the instrument was set to be 10 kHz (Bessel), and the electrode impedance was 2∼5 MΩ. After the formation of giga-seal (1∼5 GΩ) between the electrode and cell membrane, an automatic c-fast was performed, and the membrane was broken by slightly applying negative pressure, then an automatic c-slow was performed. At a holding potential of -70 mV, depolarizing pulses, incrementing in 10 mV steps, with a step width of 80 ms , were given to stimulate from -60 mV to +50 mV, and the condition of current was observed. The polypeptides ADMR-011, ADMR-016 and ADMR-019 were accurately perfused, which was achieved by MPS-2 (INBIO Inc, Wuhan, China) perfusing system. After dissolving the three scorpion active polypeptides, they were applied by spraying via DAD Drug Application System (ALA), and the tip of the tube for drug application was about 100 µm away from the cell being recorded.
It can be known from Figure 16 to Figure 20 that, the pharmacological activity of ADMR-011 on potassium channel Kvl.3 was 91 pM, the pharmacological activity of ADMR-016 on potassium channel Kvl.3 was 2.58 nM, the pharmacological activity of ADMR-019 on potassium channel Kv1.3 was 1.41 nM, and the pharmacological activity of ADMR-023 and ADMR-028 on potassium channel Kvl.3 were 0.49 nM and 0.65 nM, respectively. Therefore, they are polypeptides with potent activity that are currently found internationally.

T1 sequence (P22001 whole entry): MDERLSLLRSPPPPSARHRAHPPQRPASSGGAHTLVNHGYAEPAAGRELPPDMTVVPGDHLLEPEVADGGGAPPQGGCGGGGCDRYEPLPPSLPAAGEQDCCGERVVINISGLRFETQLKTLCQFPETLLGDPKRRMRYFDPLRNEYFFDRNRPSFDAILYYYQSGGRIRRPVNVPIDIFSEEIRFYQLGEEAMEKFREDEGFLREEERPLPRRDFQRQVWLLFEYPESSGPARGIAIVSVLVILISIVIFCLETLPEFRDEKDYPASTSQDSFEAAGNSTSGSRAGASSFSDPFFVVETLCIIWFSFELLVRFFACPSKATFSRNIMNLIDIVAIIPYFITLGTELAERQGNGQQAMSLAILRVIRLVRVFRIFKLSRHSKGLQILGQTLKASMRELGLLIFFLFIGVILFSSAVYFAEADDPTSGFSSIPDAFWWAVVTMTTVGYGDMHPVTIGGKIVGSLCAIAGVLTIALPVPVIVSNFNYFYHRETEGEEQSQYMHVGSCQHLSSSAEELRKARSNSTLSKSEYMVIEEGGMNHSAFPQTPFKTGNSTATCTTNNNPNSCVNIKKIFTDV

SMILES	Score of joint (rheumatoid arthritis; 10 d)	Score of joint (rheumatoid arthritis; 15 d)	Score of joint (rheumatoid arthritis; 21 d)	The swelling degree after the inflammation (rheumatoid arthritis; d8) [mL]	The swelling degree after the inflammation (rheumatoid arthritis; d15) [mL]	The swelling degree after the inflammation (rheumatoid arthritis; d22) [mL]	The swelling degree after the inflammation (rheumatoid arthritis; d28) [mL]	Average clinical scores (Wistar rat EAE model; 8 d)	Average clinical scores (Wistar rat EAE model; 10 d)	Average clinical scores (Wistar rat EAE model; 12 d)	Average clinical scores (Wistar rat EAE model; 14 d)	toxicity in mice (Kunming mice)	IC50 (potassium channel Kv1.3) [nM]
CC[C@H](C)[C@@H]1NC(=O)CNC(=O)[C@H](CCC(=O)O)NC(=O)[C@@H]2CSSC[C@@H](C(=O)N[C@@H](Cc3ccc(O)cc3)C(=O)N[C@@H](CCCNC(=N)N)C(=O)O)NC(=O)[C@H](C(C)C)NC(=O)[C@@H]3CSSC[C@H](NC(=O)[C@H](CCC(=O)O)NC(=O)[C@H](CO)NC(=O)[C@H](CO)NC(=O)CNC(=O)[C@H](CC(N)=O)NC(=O)[C@@H](NC(=O)[C@H](CCC(=O)O)NC(=O)[C@H](CCCCN)NC(=O)[C@H](CO)NC(=O)[C@@H](NC(=O)[C@H](Cc4ccc(O)cc4)NC(=O)[C@@H](NC(=O)[C@@H](N)CCC(N)=O)[C@@H](C)CC)[C@@H](C)O)CSSC[C@H](NC(=O)[C@H](CCCCN)NC(=O)CNC(=O)[C@H](CO)NC(=O)[C@H](CCCNC(=N)N)NC(=O)[C@H](CCCCN)NC(=O)CNC(=O)[C@H]([C@@H](C)O)NC1=O)C(=O)N[C@@H]([C@@H](C)CC)C(=O)N[C@@H](CC(N)=O)C(=O)N[C@@H](CCCCN)C(=O)N[C@@H](CCCCN)C(=O)N3)C(=O)N[C@@H](Cc1ccc(O)cc1)C(=O)N[C@@H](CO)C(=O)N[C@@H](Cc1c[nH]cn1)C(=O)N2 [ADMR-011] (H-QIYTSKECNGSSECYSHCEGITGKRSGKCINKKCVCYR-OH; disulfide 8-29, 14-34, 18-36 (inferred); N-terminus and C-terminus assumed)	1.63±0.57	2.07±0.65	1.62±0.59	0.041 ± 0.012	0.21 ± 0.06	0.29 ± 0.09	0.24 ± 0.13	0.47±0.18	0.75±0.21	0.83±0.35	0.95±0.37	no significant toxicity	0.091
CC[C@H](C)[C@H](NC(=O)CNC(=O)[C@@H](N)C(C)C)C(=O)N[C@@H](CC(N)=O)C(=O)N[C@H](C(=O)N[C@@H](CCC(N)=O)C(=O)N[C@H]1CSSC[C@@H]2NC(=O)[C@H](CCC(N)=O)NC(=O)CNC(=O)[C@H](Cc3ccccc3)NC(=O)[C@H](CCCNC(=N)N)NC(=O)[C@H](CCSC)NC(=O)CNC(=O)[C@H](C)NC(=O)[C@H](CC(=O)O)NC(=O)[C@H](CCCCN)NC(=O)[C@@H]3CSSC[C@@H](C(=O)N[C@H](C(=O)N4CCC[C@H]4C(=O)N[C@@H](CCCCN)C(=O)O)[C@@H](C)O)NC(=O)[C@H](CC(=O)O)NC(=O)[C@H](CSSC[C@H](NC(=O)[C@H](CCC(N)=O)NC(=O)CNC(=O)[C@H](CO)NC(=O)[C@H]([C@@H](C)O)NC(=O)[C@H](CC(N)=O)NC1=O)C(=O)N[C@@H](CC(C)C)C(=O)N[C@@H](CCCCN)C(=O)N1CCC[C@H]1C(=O)N3)NC(=O)[C@H](CCCCN)NC(=O)CNC(=O)[C@H](CC(N)=O)NC(=O)[C@H]([C@@H](C)CC)NC2=O)C(C)C [ADMR-016] (H-VGINVQCNTSGQCLKPCKDAGMRFGQCINGKCDCTPK-OH; disulfide 7-27, 13-32, 17-34 (inferred); N-terminus and C-terminus assumed)	1.84±0.71	2.24±0.53	1.96±0.62	0.037 ± 0.012	0.25 ± 0.07	0.37 ± 0.08	0.33 ± 0.12	0.50±0.23	0.87±0.34	1.31±0.42	1.21±0.49	no significant toxicity	2.58
